Results from patent US20250340661A1, “ANTI CD40 ANTIBODY, ANTIGEN BINDING FRAGMENT AND MEDICAL USE THEREOF” (Jiangsu Hengrui Pharmaceuticals Co., Ltd., priority 2021, published 2025).

Experiments:
[1] = tested on: human CD40 transgenic mice; test: Mouse skin graft rejection model; type: in vivo
Description: Male Balb/c mice, 6 weeks old, were purchased from the Laboratory Animal Management Department, Shanghai Institute of Planned Parenthood Research. Housing environment: SPF; certification number: 20180006023393.
On day −2 of the experiment, the mice were intraperitoneally injected with tacrolimus FK506 or CD40 antagonistic antibodies. On day 0 of the experiment, donor Balb/c mice and C57BL6/J mice were anesthetized with 4% chloral hydrate. The tails of the donor mice were removed, and full circles of skin, 1 cm in length, were isolated from the tails. The hair on the acceptor mice's back was removed, and an incision was made along the skin layer. An equal area of skin was removed while preserving the back fat and connective tissue. The donor skin was placed on the acceptor mice's incision site, and the incision was closed with glue. The mice were then placed back in cages to recover.
The mice were dosed according to the administration regimens in Table 17. After 7 days of recovery, the mouse skin survival was observed daily and rejection scores were recorded.

[2] = PK assay in human CD40 transgenic mice; type: in vivo, mouse; conditions: hCD40 transgenic mice, 10 mg/kg intraperitoneal, plasma
Description: The plate was washed three times with wash buffer.

[3] = target: T1, CD40 (Homo sapiens, UniProt P25942); test: HEK-Blue CD40L reporter gene cell activity of human-rabbit chimeric anti-CD40 antibodies; type: cell-based; set-up: host or cells: HEK-Blue CD40L cells; conditions: HEK-Blue CD40L cells, 25 ng/mL CD40L + anti-His antibody
Description: HEK-Blue CD40L cells were purchased from Invivogen (Cat. #hkb-cd40). The cells were stably transfected with the human CD40 gene and the NF-kB-mediated SEAP genome. The activation level of the CD40 signaling pathway can be characterized by detecting the secreted SEAP in the supernatant using QUANTI-Blue, the substrate of SEAP. In this experiment, the in vitro antagonist activity of anti-CD40 antibodies was assessed according to IC50 by detecting the activation of HEK-Blue CD40L cells by CD40L. HEK-Blue CD40L cells were cultured in a DMEM medium containing 10% FBS, 100 μg/mL Zeocin and 30 μg/mL Blasticidin and passaged 2-3 times in a week at a ratio of 1:5 or 1:10. During passaging, the medium was pipetted off, and the cell layer was rinsed with 5 mL of 0.25% pancreatin. Then the pancreatin was pipetted off, the cells were digested in an incubator for 3-5 min, and then a fresh medium was added to resuspend cells. 100 μL of cell suspension was added to a 96-well cell culture plate at a density of […]. The medium was DMEM containing 10% FBS, 100 μg/mL Zeocin and 30 μg/mL Blasticidin. Only 100 μL of sterile water was added to the periphery of the 96-well plate. […] The absorbance at 630 nm was measured with a microplate reader (Thermo MultiSkanFc), and IC50 values were calculated and used to assess the in vitro cell activity of the anti-CD40 antibodies.
Target sequence in this assay (P25942 21-277): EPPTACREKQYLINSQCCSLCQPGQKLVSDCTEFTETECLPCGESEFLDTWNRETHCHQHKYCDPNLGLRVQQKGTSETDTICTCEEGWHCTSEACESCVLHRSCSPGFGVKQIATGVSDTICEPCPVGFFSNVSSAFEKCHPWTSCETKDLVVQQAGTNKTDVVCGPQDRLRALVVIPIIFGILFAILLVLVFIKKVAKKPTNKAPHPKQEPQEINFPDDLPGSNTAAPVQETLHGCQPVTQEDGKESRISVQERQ

[4] = target: T1, CD40; test: SPR (Biacore) affinity for human CD40; type: binding; set-up: h-CD40-his; Glu21-Arg193; P25942-1; His; purchased Acrobiosystems Inc. CD0-H5228; conditions: Human CD40 as mobile phase, antibody captured
Description: The test antibody was affinity-captured on an anti-human Fc chip, and a series of concentrations of His-tagged human or cynomolgus monkey CD40 antigen were allowed to flow over the chip surface. Reaction signals were detected in real time using a Biacore instrument, and thus binding and dissociation curves were obtained. The buffer used in the experiment was HBS-EP+10× buffer solution (Cat. #BR-1006-69, GE) diluted to 1× (pH 7.4) with D. I. Water. Fitting was performed on the data obtained from the experiment using a (1:1) Binding model to obtain affinity values. 9E6-L4H2 and 2F12-L4H2 have similar binding constants for human CD40 to CFZ533, 9E6-L4H2 has a stronger binding affinity for cynomolgus monkey CD40, and 2F12-L4H2 has a slightly weak binding affinity for cynomolgus monkey CD40.
Target sequence in this assay (P25942 21-193): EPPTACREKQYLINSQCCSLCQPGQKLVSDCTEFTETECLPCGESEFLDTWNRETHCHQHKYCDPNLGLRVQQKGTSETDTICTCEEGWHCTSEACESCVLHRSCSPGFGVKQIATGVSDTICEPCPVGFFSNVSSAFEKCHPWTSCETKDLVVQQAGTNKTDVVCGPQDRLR

Question: With “CFZ533: anti-CD40 antagonistic antibody (iscalimab), positive control; variable regions from U.S. Pat. No. 8,277,810B [reference compound]” as the substance, how does the Skin graft score ([1]; 8 days, 3 mpk, scale 3 (no rejection) to 0) read?
Answer: 2.7

Question: And the Skin graft score ([1]; 8 days, 10 mpk, scale 3 to 0)?
Answer: 2.9

Question: And the Skin graft score ([1]; 10 days, 3 mpk, scale 3 to 0)?
Answer: 2.1

Question: What about the Skin graft score ([1]; 10 days, 10 mpk, scale 3 to 0) of the same substance?
Answer: 2.1

Question: And the Skin graft score ([1]; 15 days, 3 mpk, scale 3 to 0)?
Answer: 0

Question: And the Skin graft score ([1]; 15 days, 10 mpk, scale 3 to 0)?
Answer: 0

Question: What about the Skin graft score ([1]; 20 days, 3 mpk, scale 3 to 0) of the same substance?
Answer: 0

Question: What about the Skin graft score ([1]; 20 days, 10 mpk, scale 3 to 0) of the same substance?
Answer: 0

Question: And the “Skin graft survival rate (%)” value ([1]; Day 15, 3 mpk ip)?
Answer: 0%

Question: What about the “Skin graft survival rate (%)” value ([1]; Day 15, 10 mpk ip) of the same substance?
Answer: 0%

Question: What about the “AUC(0-d 14)” value [2] of the same substance?
Answer: 12655 (h)*(mg/L)

Question: What about the Cmax [2] of the same substance?
Answer: 75.95 µg/mL

Question: What about the T½ [2] of the same substance?
Answer: 214.8 h

Question: And the IC50 [3]?
Answer: 272 pM

Question: And the Ka [4]?
Answer: 688000 M⁻¹ s⁻¹
